Reference: patent US9050341B2, “Methods of treating drug resistant and other tumors by administering 6,7-dialkoxy quinazoline derivatives” (NATCO PHARMA LIMITED, priority 2009, dated 2015)

What was measured:
Assay in all cases: KinomeScan kinase profiling
Format in all cases: binding
ABL1 (M351T) = target: T1, ABL1 (M351T) (Homo sapiens, UniProt P00519, M351T)
T1 construct: host or cells: E. coli host derived from BL21 (T7 phage lysate)
In short: (§1)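 Kinases were expressed as T7 phage fusions in a BL21-derived E. coli host and the cleared lysates were used. Ligand beads were blocked with biotin and buffer (1% BSA, 0.05% Tween 20, 1 mM DTT). Compounds came from 40× DMSO stocks, and phage in the eluates was titred by qPCR.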

BLK = target: T2, BLK (Homo sapiens, UniProt P51451)
T2 construct: purchased Ambit Biosciences Corp (KinomeScan); host or cells: E. coli host derived from the BL21 strain, T7 phage
In short: as §1

CAMK2D = target: T3, CAMK2D (Homo sapiens, UniProt Q13557)
T3 construct: purchased Ambit Biosciences Corp (KinomeScan); host or cells: E. coli host derived from the BL21 strain, T7 phage
In short: as §1

EGFR (G719C) = target: T4, EGFR (G719C) (Homo sapiens, UniProt P00533, G719C)
T4 construct: purchased Ambit Biosciences Corp (KinomeScan); host or cells: T7 phage in E. coli host derived from BL21
In short: as §1

EGFR (L858R) = target: T5, EGFR (L858R) (Homo sapiens, UniProt P00533, L858R)
T5 construct: host or cells: E. coli host derived from BL21, T7 phage lysate
In short: as §1

FES = target: T6, FES (Homo sapiens, UniProt P07332)
T6 construct: host or cells: E. coli host derived from BL21, infected with T7 phage
In short: as §1

GSK3A = target: T7, GSK3A (Homo sapiens, UniProt P49840)
T7 construct: host or cells: E. coli host derived from BL21, infected with T7 phage
In short: as §1

INSRR = target: T8, INSRR (Homo sapiens, UniProt P14616)
T8 construct: host or cells: T7 phage in E. coli host derived from BL21
In short: as §1

LYN = target: T9, LYN (Homo sapiens, UniProt P07948)
T9 construct: host or cells: E. coli derived from BL21, infected with T7 phage
In short: as §1

MKNK1 = target: T10, MKNK1 (Homo sapiens, UniProt Q9BUB5)
T10 construct: host or cells: T7 phage in E. coli host derived from BL21
In short: as §1

NEK2 = target: T11, NEK2 (Homo sapiens, UniProt P51955)
T11 construct: host or cells: T7 phage in E. coli host derived from BL21
In short: as §1

PAK1 = target: T12, PAK1 (Homo sapiens, UniProt Q13153)
T12 construct: host or cells: E. coli host derived from the BL21 strain, infected with T7 phage
In short: as §1

PAK3 = target: T13, PAK3 (Homo sapiens, UniProt O75914)
T13 construct: host or cells: E. coli host derived from the BL21 strain, infected with T7 phage
In short: as §1

PIM1 = target: T14, PIM1 (Homo sapiens, UniProt P11309)
T14 construct: purchased Ambit Biosciences Corp (KinomeScan); host or cells: E. coli host derived from BL21, infected with T7 phage
In short: as §1

PRKD2 = target: T15, PRKD2 (Homo sapiens, UniProt Q9BZL6)
T15 construct: purchased Ambit Biosciences Corp (KinomeScan); host or cells: E. coli host derived from BL21, infected with T7 phage
In short: as §1

RIOK1 = target: T16, RIOK1 (Homo sapiens, UniProt Q9BRS2)
T16 construct: host or cells: E. coli host derived from BL21, T7 phage lysate
In short: as §1

RIOK2 = target: T17, RIOK2 (Homo sapiens, UniProt Q9BVS4)
T17 construct: host or cells: E. coli host derived from BL21, T7 phage lysate
In short: as §1

[1] = target: T18, RPS6KA4 (Kin.Dom.-1-N-terminal) (Homo sapiens, UniProt O75676)
T18 construct: RPS6KA4 (Kin.Dom.-1-N-terminal); host or cells: E. coli host derived from BL21, T7 phage lysate
In short: as §1

[2] = target: T19, RPS6KA6 (Kin.Dom.-1-N-terminal) (Homo sapiens, UniProt Q9UK32)
T19 construct: RPS6KA6 (Kin.Dom.-1-N-terminal); host or cells: E. coli host derived from BL21, T7 phage lysate
In short: as §1

SRPK2 = target: T20, SRPK2 (Homo sapiens, UniProt P78362)
T20 construct: host or cells: E. coli host derived from the BL21 strain, T7 phage lysate
In short: as §1

SgK110 = target: T21, SgK110 (Homo sapiens, UniProt P0C264)
T21 construct: host or cells: E. coli host derived from the BL21 strain, T7 phage lysate
In short: as §1

TAOK3 = target: T22, TAOK3 (Homo sapiens, UniProt Q9H2K8)
T22 construct: host or cells: E. coli host derived from the BL21 strain, T7 phage lysate
In short: as §1

T10 sequence (Q9BUB5 whole entry): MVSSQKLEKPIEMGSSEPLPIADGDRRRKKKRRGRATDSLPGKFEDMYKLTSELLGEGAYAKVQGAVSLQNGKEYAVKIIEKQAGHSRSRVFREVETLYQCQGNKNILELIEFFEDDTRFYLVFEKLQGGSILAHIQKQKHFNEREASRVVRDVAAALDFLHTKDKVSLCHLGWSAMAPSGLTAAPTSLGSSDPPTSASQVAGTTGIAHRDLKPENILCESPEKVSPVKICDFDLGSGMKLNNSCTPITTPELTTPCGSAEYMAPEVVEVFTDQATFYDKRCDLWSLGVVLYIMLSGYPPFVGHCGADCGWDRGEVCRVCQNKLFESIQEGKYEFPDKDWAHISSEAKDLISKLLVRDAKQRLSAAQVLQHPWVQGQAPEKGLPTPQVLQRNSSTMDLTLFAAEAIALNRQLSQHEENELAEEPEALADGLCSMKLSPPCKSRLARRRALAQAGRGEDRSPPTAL
T14 sequence (P11309 whole entry): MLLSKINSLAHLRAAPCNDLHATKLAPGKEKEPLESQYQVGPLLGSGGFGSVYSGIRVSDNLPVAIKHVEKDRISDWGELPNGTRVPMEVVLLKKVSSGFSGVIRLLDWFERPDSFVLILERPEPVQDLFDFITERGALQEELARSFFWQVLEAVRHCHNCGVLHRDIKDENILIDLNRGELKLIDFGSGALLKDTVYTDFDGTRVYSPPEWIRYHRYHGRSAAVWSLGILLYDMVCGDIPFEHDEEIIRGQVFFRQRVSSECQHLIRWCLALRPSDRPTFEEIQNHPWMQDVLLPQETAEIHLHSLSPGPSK
T12 sequence (Q13153 whole entry): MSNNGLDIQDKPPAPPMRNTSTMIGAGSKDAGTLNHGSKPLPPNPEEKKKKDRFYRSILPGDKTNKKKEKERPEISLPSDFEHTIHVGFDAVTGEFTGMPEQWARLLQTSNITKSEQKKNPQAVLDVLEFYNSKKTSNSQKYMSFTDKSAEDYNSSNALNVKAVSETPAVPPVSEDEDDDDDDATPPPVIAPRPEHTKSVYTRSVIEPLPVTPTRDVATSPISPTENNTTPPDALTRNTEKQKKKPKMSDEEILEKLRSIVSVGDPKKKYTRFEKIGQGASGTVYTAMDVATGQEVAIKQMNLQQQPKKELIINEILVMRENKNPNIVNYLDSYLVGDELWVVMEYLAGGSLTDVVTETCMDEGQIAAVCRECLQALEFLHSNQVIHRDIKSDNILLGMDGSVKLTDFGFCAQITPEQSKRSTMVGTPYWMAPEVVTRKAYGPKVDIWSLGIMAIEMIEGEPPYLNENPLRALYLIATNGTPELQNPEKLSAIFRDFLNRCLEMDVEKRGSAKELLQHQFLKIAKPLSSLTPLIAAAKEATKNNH
T7 sequence (P49840 whole entry): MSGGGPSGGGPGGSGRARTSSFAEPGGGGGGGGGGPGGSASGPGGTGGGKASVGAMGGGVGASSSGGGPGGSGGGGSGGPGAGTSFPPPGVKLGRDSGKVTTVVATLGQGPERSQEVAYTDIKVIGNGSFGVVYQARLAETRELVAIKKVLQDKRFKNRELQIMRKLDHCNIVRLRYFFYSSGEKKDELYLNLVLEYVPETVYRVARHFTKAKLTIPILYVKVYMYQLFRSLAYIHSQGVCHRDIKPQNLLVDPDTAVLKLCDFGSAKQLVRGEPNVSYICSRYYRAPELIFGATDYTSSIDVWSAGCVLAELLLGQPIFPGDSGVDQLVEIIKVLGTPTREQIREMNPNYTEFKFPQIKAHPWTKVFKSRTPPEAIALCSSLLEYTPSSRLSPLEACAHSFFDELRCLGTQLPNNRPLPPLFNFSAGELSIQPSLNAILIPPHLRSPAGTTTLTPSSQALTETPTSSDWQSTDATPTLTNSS
T22 sequence (Q9H2K8 whole entry): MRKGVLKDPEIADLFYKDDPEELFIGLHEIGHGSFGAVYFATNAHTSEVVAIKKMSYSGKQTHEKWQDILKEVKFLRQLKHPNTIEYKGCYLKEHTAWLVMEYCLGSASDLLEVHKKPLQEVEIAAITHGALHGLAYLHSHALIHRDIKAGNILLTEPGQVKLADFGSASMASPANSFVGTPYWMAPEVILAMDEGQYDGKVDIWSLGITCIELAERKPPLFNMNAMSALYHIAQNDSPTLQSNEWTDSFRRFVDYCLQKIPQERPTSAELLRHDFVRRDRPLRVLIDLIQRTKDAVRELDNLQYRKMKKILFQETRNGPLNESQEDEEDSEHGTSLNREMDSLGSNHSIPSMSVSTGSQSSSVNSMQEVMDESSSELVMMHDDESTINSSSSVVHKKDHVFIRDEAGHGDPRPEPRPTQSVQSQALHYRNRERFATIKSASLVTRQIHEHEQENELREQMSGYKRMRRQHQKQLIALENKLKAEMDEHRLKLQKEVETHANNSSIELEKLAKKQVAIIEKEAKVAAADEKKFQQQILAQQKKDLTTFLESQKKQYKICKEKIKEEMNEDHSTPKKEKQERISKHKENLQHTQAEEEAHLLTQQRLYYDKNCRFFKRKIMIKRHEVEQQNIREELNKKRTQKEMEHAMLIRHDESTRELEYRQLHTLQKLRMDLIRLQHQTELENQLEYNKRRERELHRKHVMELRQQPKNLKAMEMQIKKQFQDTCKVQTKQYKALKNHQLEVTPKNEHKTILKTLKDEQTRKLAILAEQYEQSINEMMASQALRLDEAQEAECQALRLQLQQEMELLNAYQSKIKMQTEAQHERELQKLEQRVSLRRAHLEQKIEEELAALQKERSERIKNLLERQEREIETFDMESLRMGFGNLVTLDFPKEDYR
T8 sequence (P14616 27-1297): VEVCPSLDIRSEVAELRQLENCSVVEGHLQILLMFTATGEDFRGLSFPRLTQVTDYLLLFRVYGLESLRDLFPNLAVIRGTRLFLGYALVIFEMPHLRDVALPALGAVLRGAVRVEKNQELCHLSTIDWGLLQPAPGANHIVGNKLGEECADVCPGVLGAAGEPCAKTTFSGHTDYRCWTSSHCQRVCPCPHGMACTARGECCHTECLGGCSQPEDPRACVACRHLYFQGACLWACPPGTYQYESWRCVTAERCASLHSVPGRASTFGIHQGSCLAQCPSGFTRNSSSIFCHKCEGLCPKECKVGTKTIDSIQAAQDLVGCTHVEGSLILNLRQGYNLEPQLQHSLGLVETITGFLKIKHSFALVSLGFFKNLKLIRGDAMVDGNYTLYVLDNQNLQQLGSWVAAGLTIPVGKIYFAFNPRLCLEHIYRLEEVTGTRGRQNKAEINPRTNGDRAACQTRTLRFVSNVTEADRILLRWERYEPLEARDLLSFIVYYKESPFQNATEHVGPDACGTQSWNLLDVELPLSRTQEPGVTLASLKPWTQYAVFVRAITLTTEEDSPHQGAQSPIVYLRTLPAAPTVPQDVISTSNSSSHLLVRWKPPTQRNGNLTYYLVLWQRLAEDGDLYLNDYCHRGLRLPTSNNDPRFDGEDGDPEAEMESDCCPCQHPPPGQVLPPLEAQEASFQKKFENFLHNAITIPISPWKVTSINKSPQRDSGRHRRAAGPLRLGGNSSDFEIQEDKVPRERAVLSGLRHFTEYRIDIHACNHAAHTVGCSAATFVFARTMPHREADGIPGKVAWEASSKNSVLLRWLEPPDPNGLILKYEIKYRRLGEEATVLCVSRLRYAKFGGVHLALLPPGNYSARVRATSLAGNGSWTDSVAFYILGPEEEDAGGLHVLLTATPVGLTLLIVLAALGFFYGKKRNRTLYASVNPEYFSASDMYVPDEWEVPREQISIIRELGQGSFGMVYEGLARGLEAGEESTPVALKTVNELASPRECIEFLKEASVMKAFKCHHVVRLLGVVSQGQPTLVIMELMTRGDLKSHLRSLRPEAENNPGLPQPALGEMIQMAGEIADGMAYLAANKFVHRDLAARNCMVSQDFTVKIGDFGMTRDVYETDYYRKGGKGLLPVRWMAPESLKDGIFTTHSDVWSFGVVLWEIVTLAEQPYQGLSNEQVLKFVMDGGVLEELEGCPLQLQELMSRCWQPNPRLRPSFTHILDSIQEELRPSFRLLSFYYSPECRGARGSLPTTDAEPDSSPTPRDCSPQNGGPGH
T16 sequence (Q9BRS2 whole entry): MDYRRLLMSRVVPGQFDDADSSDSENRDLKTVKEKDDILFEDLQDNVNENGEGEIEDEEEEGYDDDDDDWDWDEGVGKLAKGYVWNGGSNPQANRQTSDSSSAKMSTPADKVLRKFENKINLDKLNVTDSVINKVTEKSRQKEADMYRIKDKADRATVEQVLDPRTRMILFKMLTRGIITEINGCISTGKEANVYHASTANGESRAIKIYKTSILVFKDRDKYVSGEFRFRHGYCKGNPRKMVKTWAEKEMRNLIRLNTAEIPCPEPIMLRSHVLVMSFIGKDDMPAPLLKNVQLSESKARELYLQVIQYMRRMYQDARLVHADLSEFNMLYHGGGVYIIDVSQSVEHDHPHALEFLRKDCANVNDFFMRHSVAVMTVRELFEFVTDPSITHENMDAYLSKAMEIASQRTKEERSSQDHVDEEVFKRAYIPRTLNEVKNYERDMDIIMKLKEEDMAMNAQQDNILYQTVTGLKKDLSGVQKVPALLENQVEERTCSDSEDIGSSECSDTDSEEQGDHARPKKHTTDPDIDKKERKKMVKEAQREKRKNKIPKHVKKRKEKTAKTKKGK
T19 sequence (Q9UK32 73-330 limits assumed): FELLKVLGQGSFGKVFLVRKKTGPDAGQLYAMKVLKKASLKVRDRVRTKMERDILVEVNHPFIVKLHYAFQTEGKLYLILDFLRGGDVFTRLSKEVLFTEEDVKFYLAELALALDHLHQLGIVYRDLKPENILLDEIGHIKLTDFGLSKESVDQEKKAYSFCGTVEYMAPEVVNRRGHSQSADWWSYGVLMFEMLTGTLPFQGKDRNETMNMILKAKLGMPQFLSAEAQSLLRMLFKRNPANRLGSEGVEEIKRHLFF

Compound: C#Cc1cccc(Nc2ncnc3cc(OC)c(OCCCN4CCOCC4)cc23)c1 [NRC-2694, N-(3-ethylnylphenyl)-7-methoxy-6-[3-(4-morpholinyl)propoxy]-4-quinazolinamine]
- % Ctrl @ 10000 nM (ABL1 (M351T)): 37 % Ctrl
- % Ctrl @ 10000 nM (BLK): 4.4 % Ctrl
- % Ctrl @ 10000 nM (CAMK2D): 35 % Ctrl
- % Ctrl @ 10000 nM (EGFR (G719C)): 0 % Ctrl
- % Ctrl @ 10000 nM (EGFR (L858R)): 0 % Ctrl
- % Ctrl @ 10000 nM (FES): 72 % Ctrl
- % Ctrl @ 10000 nM (GSK3A): 75 % Ctrl
- % Ctrl @ 10000 nM (INSRR): 79 % Ctrl
- % Ctrl @ 10000 nM (LYN): 13 % Ctrl
- % Ctrl @ 10000 nM (MKNK1): 1.2 % Ctrl
- % Ctrl @ 10000 nM (NEK2): 63 % Ctrl
- % Ctrl @ 10000 nM (PAK1): 74 % Ctrl
- % Ctrl @ 10000 nM (PAK3): 55 % Ctrl
- % Ctrl @ 10000 nM (PIM1): 39 % Ctrl
- % Ctrl @ 10000 nM (PRKD2): 0.4 % Ctrl
- % Ctrl @ 10000 nM (RIOK1): 36 % Ctrl
- % Ctrl @ 10000 nM (RIOK2): 43 % Ctrl
- % Ctrl @ 10000 nM [1]: 84 % Ctrl
- % Ctrl @ 10000 nM [2]: 94 % Ctrl
- % Ctrl @ 10000 nM (SRPK2): 73 % Ctrl
- % Ctrl @ 10000 nM (SgK110): 83 % Ctrl
- % Ctrl @ 10000 nM (TAOK3): 76 % Ctrl
